Measured values: PubChem BioAssay AID1259407 (Chemical Carcinogenesis Research Information System (CCRIS), 2018)
Activity calls are given as the source filed them. The rule behind the calls is not given here.

System: CCRIS mutagenicity, Ames/micronucleus/aberration tests
Experiment: CCRIS mutagenicity studies

C[C@@H]1Cc2c(Cl)cc(C(=O)NC(Cc3ccccc3)C(=O)O)c(O)c2C(=O)O1 (stereo partly specified)
mutagenic call (End Point: IN VITRO CHROMOSOMAL ABERRATIONS, Test System: BOVINE LYMPHOCYTES, Metabolic Activation: NONE): active; positive (structural changes)
mutagenic call (End Point: IN VIVO CHROMOSOMAL ABERRATIONS, Test System: SPLENOCYTES, Species: RAT, Strain/Sex: FISCHER 344/MALE, Route: ORAL (GAVAGE)): inactive; negative
mutagenic call (End Point: In vivo chromosomal aberrations, Test System: Bone marrow cells, Species: Mouse, Strain/Sex: Balb/C / Male, Route: Intraperitoneal): active; positive (structural changes)
mutagenic call (End Point: In vivo micronucleus, Test System: Bone marrow polychromatic erythrocytes, Species: Rat, Strain/Sex: Sprague-Dawley/Male, Route: Oral): active; positive. addition of inula crithmoides extract inhibited the response
mutagenic call (Test System: AMES SALMONELLA TYPHIMURIUM, Strain/Indicator: TA97, Metabolic Activation: HAMSTER, LIVER, S-9, AROCLOR 1254 (10 OR 30%), Method: PREINCUBATION): inactive; negative
mutagenic call (Test System: AMES SALMONELLA TYPHIMURIUM, Strain/Indicator: TA97, Metabolic Activation: HAMSTER, LIVER, S-9, AROCLOR 1254, Method: PREINCUBATION): inactive; negative
mutagenic call (Test System: AMES SALMONELLA TYPHIMURIUM, Strain/Indicator: TA97, Metabolic Activation: NONE, Method: PREINCUBATION): inactive; negative
mutagenic call (Test System: AMES SALMONELLA TYPHIMURIUM, Strain/Indicator: TA97, Metabolic Activation: RAT, LIVER, S-9, AROCLOR 1254 (10 OR 30%), Method: PREINCUBATION): inactive; negative
mutagenic call (Test System: AMES SALMONELLA TYPHIMURIUM, Strain/Indicator: TA97, Metabolic Activation: RAT, LIVER, S-9, AROCLOR 1254, Method: PREINCUBATION): inactive; negative
mutagenic call (Test System: AMES SALMONELLA TYPHIMURIUM, Strain/Indicator: TA97A, Metabolic Activation: NONE, Method: PREINCUBATION): inactive; negative
mutagenic call (Test System: AMES SALMONELLA TYPHIMURIUM, Strain/Indicator: TA97A, Metabolic Activation: RAT LIVER S-9, Method: PREINCUBATION): inactive; negative
mutagenic call (Test System: AMES SALMONELLA TYPHIMURIUM, Strain/Indicator: TA98, Metabolic Activation: HAMSTER, LIVER, S-9, AROCLOR 1254 (10 OR 30%), Method: PREINCUBATION): inactive; negative
mutagenic call (Test System: AMES SALMONELLA TYPHIMURIUM, Strain/Indicator: TA98, Metabolic Activation: HAMSTER, LIVER, S-9, AROCLOR 1254, Method: PREINCUBATION): inactive; negative
mutagenic call (Test System: AMES SALMONELLA TYPHIMURIUM, Strain/Indicator: TA98, Metabolic Activation: HUMAN HEPG2 CELL S-9, Method: PREINCUBATION): inactive; negative
mutagenic call (Test System: AMES SALMONELLA TYPHIMURIUM, Strain/Indicator: TA98, Metabolic Activation: MOUSE KIDNEY S-9, NADP OR ARACHIDONIC ACID (10%), Method: MICROMETHOD): active; positive
mutagenic call (Test System: AMES SALMONELLA TYPHIMURIUM, Strain/Indicator: TA98, Metabolic Activation: MOUSE LIVER S-9 (10%), Method: MICROMETHOD): inactive; negative
mutagenic call (Test System: AMES SALMONELLA TYPHIMURIUM, Strain/Indicator: TA98, Metabolic Activation: NONE, Method: PREINCUBATION): inactive; negative
mutagenic call (Test System: AMES SALMONELLA TYPHIMURIUM, Strain/Indicator: TA98, Metabolic Activation: NONE, Method: STANDARD PLATE): inactive; negative
mutagenic call (Test System: AMES SALMONELLA TYPHIMURIUM, Strain/Indicator: TA98, Metabolic Activation: RAT LIVER S-9, AROCLOR 1254 (10%), Method: MICROMETHOD): inactive; negative
mutagenic call (Test System: AMES SALMONELLA TYPHIMURIUM, Strain/Indicator: TA98, Metabolic Activation: RAT LIVER S-9, Method: PREINCUBATION): inactive; negative
mutagenic call (Test System: AMES SALMONELLA TYPHIMURIUM, Strain/Indicator: TA98, Metabolic Activation: RAT, LIVER, S-9, AROCLOR 1254 (10 OR 30%), Method: PREINCUBATION): inactive; negative
mutagenic call (Test System: AMES SALMONELLA TYPHIMURIUM, Strain/Indicator: TA98, Metabolic Activation: RAT, LIVER, S-9, AROCLOR 1254, Method: PREINCUBATION): inactive; negative
mutagenic call (Test System: AMES SALMONELLA TYPHIMURIUM, Strain/Indicator: TA98, Metabolic Activation: RAT, LIVER, S-9, AROCLOR 1254, Method: STANDARD PLATE): inactive; negative
mutagenic call (Test System: AMES SALMONELLA TYPHIMURIUM, Strain/Indicator: TA100, Metabolic Activation: HAMSTER, LIVER, S-9, AROCLOR 1254 (10 OR 30%), Method: PREINCUBATION): inactive; negative
mutagenic call (Test System: AMES SALMONELLA TYPHIMURIUM, Strain/Indicator: TA100, Metabolic Activation: HAMSTER, LIVER, S-9, AROCLOR 1254, Method: PREINCUBATION): inactive; negative
mutagenic call (Test System: AMES SALMONELLA TYPHIMURIUM, Strain/Indicator: TA100, Metabolic Activation: HUMAN HEPG2 CELL S-9, Method: PREINCUBATION): inactive; negative
mutagenic call (Test System: AMES SALMONELLA TYPHIMURIUM, Strain/Indicator: TA100, Metabolic Activation: NONE, Method: STANDARD PLATE): inactive; negative
mutagenic call (Test System: AMES SALMONELLA TYPHIMURIUM, Strain/Indicator: TA100, Metabolic Activation: RAT LIVER S-9, Method: PREINCUBATION): inactive; negative
mutagenic call (Test System: AMES SALMONELLA TYPHIMURIUM, Strain/Indicator: TA100, Metabolic Activation: RAT, LIVER, MICROSOMES, PHENOBARBITAL, Method: STANDARD PLATE): active; positive
mutagenic call (Test System: AMES SALMONELLA TYPHIMURIUM, Strain/Indicator: TA100, Metabolic Activation: RAT, LIVER, S-9, AROCLOR 1254 (10 OR 30%), Method: PREINCUBATION): inactive; negative
mutagenic call (Test System: AMES SALMONELLA TYPHIMURIUM, Strain/Indicator: TA100, Metabolic Activation: RAT, LIVER, S-9, AROCLOR 1254, Method: PREINCUBATION): inactive; negative
mutagenic call (Test System: AMES SALMONELLA TYPHIMURIUM, Strain/Indicator: TA100, Metabolic Activation: RAT, LIVER, S-9, AROCLOR 1254, Method: STANDARD PLATE): inactive; negative
mutagenic call (Test System: AMES SALMONELLA TYPHIMURIUM, Strain/Indicator: TA100, Metabolic Activation: RAT, LIVER, S-9, PHENOBARBITAL, Method: PREINCUBATION): inactive; negative
mutagenic call (Test System: AMES SALMONELLA TYPHIMURIUM, Strain/Indicator: TA102, Metabolic Activation: NONE, Method: PREINCUBATION): inactive; negative
mutagenic call (Test System: AMES SALMONELLA TYPHIMURIUM, Strain/Indicator: TA102, Metabolic Activation: NONE, Method: STANDARD PLATE): inactive; negative
mutagenic call (Test System: AMES SALMONELLA TYPHIMURIUM, Strain/Indicator: TA102, Metabolic Activation: RAT LIVER S-9, Method: PREINCUBATION): inactive; negative
